From patent publication US20220000111A1, “METHODS OF INCREASING ALMOND YIELD” (Valent U.S.A. LLC, priority 2020, published 2022)
Values belong to the compound of their own block, whether it stands above or below them.

Key:
Assay type in all cases: in vivo
almond trees [1] = assay: Example 1: foliar AVG-HCl application to almond trees, 2018-2019, nutmeat yield and kernel doubling at harvest; conditions: for percentage of shells harvested that contained two nut kernels, Average / yield at harvest of almond nutmeat, Average: average of trials
Method: […] of AVG applications were performed over a 2-year period. Each set of applications included a set of untreated control (“UTC”) trees. For the two sets of applications performed during the 2018 calendar year AVG-HCl was applied to almond trees either between 10% and full bloom (i.e. bloom) or between 6-7 weeks following full bloom (i.e. post-bloom). For the three sets of applications performed during the 2019 calendar year an additional application was performed as follows: 3-4 weeks post-bloom in combination with 6-7 weeks post-bloom.

almond trees [2] = assay: Example 2: foliar AVG-HCl application at full bloom or after, nonpareil and carmel almonds; conditions: for % Kernel Doubling / Nutmeat Yield / Nuts/Tree: 124 g/Ha
Method: 2 sets of AVG applications were performed on 2 varieties of almonds, nonpareil and […]. For the two sets of applications performed AVG-HCl was applied to almond trees either at full bloom or after full bloom, specifically at 22, 26, 29 or 33 days after full bloom (“DAFB”).

almond trees [3] = assay: Example 4: foliar AVG-HCl application to nonpareil almonds at Newman and Sutter, 2020; conditions: for percentage of shells harvested that contained two nut kernels / yield at harvest of almond nutmeat: nonpareil, 124 g/Ha
Method: 2 sets of AVG applications were performed on nonpareil almonds at Newman, Calif. and Sutter, Calif. in 2020. Each set of applications included a set of untreated control (“UTC”) trees. AVG-HCl was applied to almond trees either at 50% bloom (i.e. bloom), shuck split, or 7 days following shuck split.

almond trees [4] = assay: Example 3: foliar AVG-HCl application at full bloom or after, nonpareil and carmel almonds; conditions: for % Kernel Doubling / Nutmeat Yield / Nuts/Tree: 124 g/Ha
Method: 2 sets of AVG applications were performed on 2 varieties of almonds, nonpareil and […]. For the two sets of applications performed AVG-HCl was applied to almond trees either at full bloom or after full bloom, specifically 15, 22, 26, 32, 36 or 38 DAFB.

[5] = 3-4 weeks Post-bloom & 6-7 weeks Post-bloom, 2 apps, 62 g/Ha each
[6] = 3-4 weeks Post-bloom & 6-7 weeks Post-bloom, 2 apps, 62 g/Ha each, trial 2019-1
[7] = 3-4 weeks Post-bloom & 6-7 weeks Post-bloom, 2 apps, 62 g/Ha each, trial 2019-2
[8] = 3-4 weeks Post-bloom & 6-7 weeks Post-bloom, 2 apps, 62 g/Ha each, trial 2019-3
[9] = 6-7 weeks Post-bloom, 1 app, 124 g/Ha
[10] = 6-7 weeks Post-bloom, 1 app, 124 g/Ha, trial 2018-1 (second column)
[11] = 6-7 weeks Post-bloom, 1 app, 124 g/Ha, trial 2019-1
[12] = 6-7 weeks Post-bloom, 1 app, 124 g/Ha, trial 2019-2
[13] = 6-7 weeks Post-bloom, 1 app, 124 g/Ha, trial 2019-3
[14] = Bloom, 1 app, 124 g/Ha, trial 2018-1 (second column)
[15] = Bloom, 1 app, 124 g/Ha, trial 2019-1
[16] = Bloom, 1 app, 124 g/Ha, trial 2019-2
[17] = Bloom, 1 app, 124 g/Ha, trial 2019-3
[18] = Newman, 7-days post shuck split
[19] = Sutter, 7-days post shuck split

Structure (SMILES): NCCO/C=C/[C@H](N)C(=O)O (stereo in doubt) [AVG, [S]-trans-2-amino-4-(2-aminoethoxy)-3-butenoic acid]
kernel doubling, in words (almond trees [1]; application during bloom (Table 2)): statistically significant increase in kernel doubling | nutmeat yield, in words (almond trees [1]; application during bloom, versus untreated control (Table 1)): increases nutmeat yield over untreated control | kernel doubling, in words (almond trees [1]; application post-bloom (Table 2)): did not result in a statistically significant increase in kernel doubling | nutmeat yield, in words (almond trees [1]; application post-bloom, versus bloom treatment (Table 1)): greater increase in nutmeat yield than that obtained when treating during bloom | nutmeat yield, in words (almond trees [2]; application during bloom or following full bloom, nonpareil and carmel (Tables 3 and 4)): increases nutmeat yield | kernel doubling, in words (almond trees [2]; application during bloom, nonpareil and carmel (Tables 3 and 4)): statistically significant increase in kernel doubling | kernel doubling, in words (almond trees [2]; application post-bloom, nonpareil and carmel (Tables 3 and 4)): did not result in a statistically significant increase in kernel doubling | nutmeat yield, in words (almond trees [3]; application during bloom, versus untreated control (Table 7)): increases nutmeat yield over untreated control | kernel doubling, in words (almond trees [3]; application during bloom, Sutter, Calif. trial (Table 8)): statistically significant increase in kernel doubling | kernel doubling, in words (almond trees [3]; application post-bloom (Table 8)): did not result in a statistically significant increase in kernel doubling | nutmeat yield, in words (almond trees [3]; application post-bloom, versus bloom treatment (Table 7)): greater increase in nutmeat yield than that obtained when treating during bloom | nutmeat yield, in words (almond trees [4]; application during bloom or following full bloom, nonpareil and carmel (Tables 5 and 6)): increases nutmeat yield | kernel doubling, in words (almond trees [4]; application during bloom, nonpareil and carmel (Tables 5 and 6)): statistically significant increase in kernel doubling | kernel doubling, in words (almond trees [4]; application post-bloom, nonpareil and carmel (Tables 5 and 6)): did not result in a statistically significant increase in kernel doubling

percentage of shells harvested that contained two nut kernels, Average (almond trees [1]; [5]): 1.55 b % | percentage of shells harvested that contained two nut kernels (almond trees [1]; [6]): 1.3 b % | percentage of shells harvested that contained two nut kernels (almond trees [1]; [7]): 1.5 abc % | percentage of shells harvested that contained two nut kernels (almond trees [1]; [8]): 1.9 b % | percentage of shells harvested that contained two nut kernels, Average (almond trees [1]; [9]): 2.11 b % | percentage of shells harvested that contained two nut kernels (almond trees [1]; [10]): 6.6 b % | percentage of shells harvested that contained two nut kernels (almond trees [1]; [11]): 2.5 ab % | percentage of shells harvested that contained two nut kernels (almond trees [1]; [12]): 1.08 bc % | percentage of shells harvested that contained two nut kernels (almond trees [1]; [13]): 0.7 bc % | percentage of shells harvested that contained two nut kernels, Average (almond trees [1]; Bloom, 1 app, 124 g/Ha): 8.62 a % | percentage of shells harvested that contained two nut kernels (almond trees [1]; [14]): 27.7 a % | percentage of shells harvested that contained two nut kernels (almond trees [1]; [15]): 3.5 a % | percentage of shells harvested that contained two nut kernels (almond trees [1]; [16]): 2.92 ab % | percentage of shells harvested that contained two nut kernels (almond trees [1]; [17]): 15.9 a % | % Kernel Doubling (almond trees [2]; carmel, 22 DAFB): 5.6 bc % | % Kernel Doubling (almond trees [2]; carmel, 26 DAFB): 3.7 c % | % Kernel Doubling (almond trees [2]; carmel, Full Bloom): 7.6 a % | % Kernel Doubling (almond trees [2]; nonpareil, 29 DAFB): 1.4 b % | % Kernel Doubling (almond trees [2]; nonpareil, 33 DAFB): 0.4 b % | % Kernel Doubling (almond trees [2]; nonpareil, Full Bloom): 3.8 a % | percentage of shells harvested that contained two nut kernels (almond trees [3]; [18]): 3.0% | percentage of shells harvested that contained two nut kernels (almond trees [3]; Newman, Bloom (50% bloom)): 2.7% | percentage of shells harvested that contained two nut kernels (almond trees [3]; Newman, Shuck split): 2.2% | percentage of shells harvested that contained two nut kernels (almond trees [3]; [19]): 0.5% | percentage of shells harvested that contained two nut kernels (almond trees [3]; Sutter, Bloom (50% bloom)): 1.2% | percentage of shells harvested that contained two nut kernels (almond trees [3]; Sutter, Shuck split): 0.7% | % Kernel Doubling (almond trees [4]; carmel, 15 DAFB): 0.4 b % | % Kernel Doubling (almond trees [4]; carmel, 22 DAFB): 1.4 b % | % Kernel Doubling (almond trees [4]; carmel, 32 DAFB): 0.6 b % | % Kernel Doubling (almond trees [4]; carmel, 38 DAFB): 1 b % | % Kernel Doubling (almond trees [4]; carmel, Full Bloom): 8.4 a % | % Kernel Doubling (almond trees [4]; nonpareil, 26 DAFB): 0.8 b % | % Kernel Doubling (almond trees [4]; nonpareil, 36 DAFB): 0.6 c % | % Kernel Doubling (almond trees [4]; nonpareil, Full Bloom): 2.0 a %
Structure (SMILES): Cl.NCCO/C=C/[C@H](N)C(=O)O [AVG-HCl]
yield at harvest of almond nutmeat, Average (almond trees [1]; [5]): 1229 a kilograms per hectare | yield at harvest of almond nutmeat (almond trees [1]; [6]): 1164 kilograms per hectare | yield at harvest of almond nutmeat (almond trees [1]; [7]): 1698 a kilograms per hectare | yield at harvest of almond nutmeat (almond trees [1]; [8]): 825 b kilograms per hectare | yield at harvest of almond nutmeat, Average (almond trees [1]; [9]): 1033 ab kilograms per hectare | yield at harvest of almond nutmeat (almond trees [1]; 6-7 weeks Post-bloom, 1 app, 124 g/Ha, trial 2018-1 (first column)): 721 kilograms per hectare | yield at harvest of almond nutmeat (almond trees [1]; [10]): 1345 a kilograms per hectare | yield at harvest of almond nutmeat (almond trees [1]; [11]): 1168 kilograms per hectare | yield at harvest of almond nutmeat (almond trees [1]; [12]): 1220 b kilograms per hectare | yield at harvest of almond nutmeat (almond trees [1]; [13]): 713 bc kilograms per hectare | yield at harvest of almond nutmeat, Average (almond trees [1]; Bloom, 1 app, 124 g/Ha): 1068 ab kilograms per hectare | yield at harvest of almond nutmeat (almond trees [1]; Bloom, 1 app, 124 g/Ha, trial 2018-1 (first column)): 712 kilograms per hectare | yield at harvest of almond nutmeat (almond trees [1]; [14]): 1148 b kilograms per hectare | yield at harvest of almond nutmeat (almond trees [1]; [15]): 1204 kilograms per hectare | yield at harvest of almond nutmeat (almond trees [1]; [16]): 1198 b kilograms per hectare | yield at harvest of almond nutmeat (almond trees [1]; [17]): 1031 a kilograms per hectare | Nutmeat Yield (almond trees [2]; carmel, 22 DAFB): 7.94 kg/tree | Nuts/Tree (almond trees [2]; carmel, 22 DAFB): 8499 b nuts per tree | Nutmeat Yield (almond trees [2]; carmel, 26 DAFB): 8.50 kg/tree | Nuts/Tree (almond trees [2]; carmel, 26 DAFB): 9676 a nuts per tree | Nutmeat Yield (almond trees [2]; carmel, Full Bloom): 7.04 kg/tree | Nuts/Tree (almond trees [2]; carmel, Full Bloom): 7039 b nuts per tree | Nutmeat Yield (almond trees [2]; nonpareil, 29 DAFB): 8.64 a kg/tree | Nuts/Tree (almond trees [2]; nonpareil, 29 DAFB): 8435 a nuts per tree | Nutmeat Yield (almond trees [2]; nonpareil, 33 DAFB): 7.89 ab kg/tree | Nuts/Tree (almond trees [2]; nonpareil, 33 DAFB): 8350 a nuts per tree | Nutmeat Yield (almond trees [2]; nonpareil, Full Bloom): 8.03 ab kg/tree | Nuts/Tree (almond trees [2]; nonpareil, Full Bloom): 8153 ab nuts per tree | yield at harvest of almond nutmeat (almond trees [3]; [18]): 3726 a kilograms per hectare | yield at harvest of almond nutmeat (almond trees [3]; Newman, Bloom (50% bloom)): 3188 c kilograms per hectare | yield at harvest of almond nutmeat (almond trees [3]; Newman, Shuck split): 3369 b kilograms per hectare | yield at harvest of almond nutmeat (almond trees [3]; [19]): 3558 ab kilograms per hectare | yield at harvest of almond nutmeat (almond trees [3]; Sutter, Bloom (50% bloom)): 3658 a kilograms per hectare | yield at harvest of almond nutmeat (almond trees [3]; Sutter, Shuck split): 3758 a kilograms per hectare | Nutmeat Yield (almond trees [4]; carmel, 15 DAFB): 6.00 kg/tree | Nuts/Tree (almond trees [4]; carmel, 15 DAFB): 7271 nuts per tree | Nutmeat Yield (almond trees [4]; carmel, 22 DAFB): 5.40 kg/tree | Nuts/Tree (almond trees [4]; carmel, 22 DAFB): 7427 nuts per tree | Nutmeat Yield (almond trees [4]; carmel, 32 DAFB): 5.30 kg/tree | Nuts/Tree (almond trees [4]; carmel, 32 DAFB): 6972 nuts per tree | Nutmeat Yield (almond trees [4]; carmel, 38 DAFB): 7.00 kg/tree | Nuts/Tree (almond trees [4]; carmel, 38 DAFB): 8875 nuts per tree | Nutmeat Yield (almond trees [4]; carmel, Full Bloom): 6.10 kg/tree | Nuts/Tree (almond trees [4]; carmel, Full Bloom): 7097 nuts per tree | Nutmeat Yield (almond trees [4]; nonpareil, 26 DAFB): 5.9 kg/tree | Nuts/Tree (almond trees [4]; nonpareil, 26 DAFB): 7636.8 nuts per tree | Nutmeat Yield (almond trees [4]; nonpareil, 36 DAFB): 6 kg/tree | Nuts/Tree (almond trees [4]; nonpareil, 36 DAFB): 7789.8 nuts per tree | Nutmeat Yield (almond trees [4]; nonpareil, Full Bloom): 4.3 kg/tree | Nuts/Tree (almond trees [4]; nonpareil, Full Bloom): 5251.6 nuts per tree
